The record followed here is PubChem BioAssay AID330 (DTP/NCI, 2004).

Where “and” joins values, the source holds several entries; their conditions need not be identical. Equal entries are not always repeated. Toxic doses and inconclusive results are not listed.

This assay has as its system P388 leukemia ip, CD2F1 mice, survival T/C. The experiment in a line: NCI In Vivo Anticancer Drug Screen. Data for tumor model P388 Leukemia (intraperitoneal) in CD2F1 (CDF1) mice. The following applies: endpoint: median survival time, higher = longer survival. Summed up: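 Mice carrying the transplanted tumor received test compound or vehicle. Survival was recorded in each group, and the value is the treated-group measurement divided by that of the vehicle-treated control group.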

The mark [1] stands for this setting: dose: 12.5 mg/kg/injection, schedule: Q01DX005 (ip), vehicle: Klucel (hydroxypropylcellulose) (HPC).
The mark [2] stands for this setting: dose: 25.0 mg/kg/injection, schedule: Q01DX005 (ip), vehicle: Klucel (hydroxypropylcellulose) (HPC).
[3] abbreviates: dose: 50.0 mg/kg/injection, schedule: Q01DX005 (ip), vehicle: Klucel (hydroxypropylcellulose) (HPC).
Setting [4] is: dose: 100.0 mg/kg/injection, schedule: Q01DX005 (ip), vehicle: Klucel (hydroxypropylcellulose) (HPC).
Setting [5] is: dose: 50.0 mg/kg/injection, schedule: Q01DX005 (ip), vehicle: saline with Tween-80.
Where [6] appears, read: dose: 100.0 mg/kg/injection, schedule: Q01DX005 (ip), vehicle: saline with Tween-80.
The mark [7] stands for this setting: dose: 200.0 mg/kg/injection, schedule: Q01DX005 (ip), vehicle: saline with Tween-80.

With `COC(=O)[C@@]12OC[C@]34[C@H]([C@@H](O)[C@@H]1O)[C@@]1(C)CC(=O)C(O)=C(C)[C@@H]1C[C@H]3OC(=O)[C@H](OC(=O)C(N)Cc1ccccc1)[C@@H]24` (stereo not given in full), the T/C was 107 % of control (dose: 0.5 mg/kg/injection, schedule: Q01DX005 (ip), vehicle: Klucel (hydroxypropylcellulose) (HPC)); 103 % of control and 107 % of control (dose: 1.0 mg/kg/injection, schedule: Q01DX005 (ip), vehicle: Klucel (hydroxypropylcellulose) (HPC)); 108 % of control and 119 % of control (dose: 2.0 mg/kg/injection, schedule: Q01DX005 (ip), vehicle: Klucel (hydroxypropylcellulose) (HPC)); 112 % of control (dose: 4.0 mg/kg/injection, schedule: Q01DX005 (ip), vehicle: Klucel (hydroxypropylcellulose) (HPC)); 110 % of control (dose: 8.0 mg/kg/injection, schedule: Q01DX005 (ip), vehicle: Klucel (hydroxypropylcellulose) (HPC)); 96 % of control (dose: 125.0 micrograms/kg/injection, schedule: Q01DX005 (ip), vehicle: Klucel (hydroxypropylcellulose) (HPC)). Moreover, the T/C by setting is: (dose: 250.0 micrograms/kg/injection, schedule: Q01DX005 (ip), vehicle: Klucel (hydroxypropylcellulose) (HPC)) 107 % of control; (dose: 500.0 micrograms/kg/injection, schedule: Q01DX005 (ip), vehicle: Klucel (hydroxypropylcellulose) (HPC)) 98 % of control; (dose: 1000.0 micrograms/kg/injection, schedule: Q01DX005 (ip), vehicle: Klucel (hydroxypropylcellulose) (HPC)) 107 % of control.
As to `CCN(CC)Cc1ccc2ccccc2c1O`, the T/C runs as follows: (dose: 50.0 mg/kg/injection, schedule: Q01DX009 (ip), vehicle: saline with Tween-80) 103 % of control; (dose: 100.0 mg/kg/injection, schedule: Q01DX009 (ip), vehicle: saline with Tween-80) 89 % of control; (dose: 200.0 mg/kg/injection, schedule: Q01DX009 (ip), vehicle: saline with Tween-80) 92 % of control.
Turning to `O=C1OC(=O)C2=C1C1c3ccccc3C2c2ccccc21`, the T/C is 100 % of control under setting [1]; 109 % of control under setting [2]; 108 % of control and 110 % of control under setting [3]; 106 % of control under setting [4].
Turning to `Cc1cc(N=[N+]=[N-])c2cc3c(cc2n1)OCO3`, the T/C (dose: 60.0 mg/kg/injection, schedule: Q01DX005 (ip), vehicle: saline with Tween-80) is 103 % of control; the T/C (dose: 120.0 mg/kg/injection, schedule: Q01DX005 (ip), vehicle: saline with Tween-80) was 95 % of control; the T/C (dose: 240.0 mg/kg/injection, schedule: Q01DX005 (ip), vehicle: saline with Tween-80) is 94 % of control.
`C[Si](C)(C)c1ccc2c(c1O)C(=O)c1ccccc1C2=O`: the T/C is 100 % of control under setting [5], 100 % of control under setting [6] and 102 % of control under setting [7].
Turning to `CNC(=O)c1cccc2c(Nc3ccc(NS(C)(=O)=O)cc3OC)c3cccc(C)c3nc12`, the T/C was 163 % of control (dose: 1.56 mg/kg/injection, schedule: Q01DX005 (ip), vehicle: water); 175 % of control (dose: 3.0 mg/kg/injection, schedule: Q01DX005 (ip), vehicle: water); 169 % of control (dose: 3.12 mg/kg/injection, schedule: Q01DX005 (ip), vehicle: water); 218 % of control (dose: 6.25 mg/kg/injection, schedule: Q01DX005 (ip), vehicle: water); 151 % of control (dose: 12.5 mg/kg/injection, schedule: Q01DX005 (oral), vehicle: water).
On to `COC(=O)C[C@@]1(C(=O)OC)[C@H](C(=O)OC)[C@@H](C(=O)OC)N(C(C)=O)N1C`, for which the T/C runs as follows: under setting [3], 105 % of control; under setting [4], 105 % of control; (dose: 100.0 mg/kg/injection, schedule: Q04DX002 (ip), vehicle: Klucel (hydroxypropylcellulose) (HPC)) 104 % of control; (dose: 200.0 mg/kg/injection, schedule: Q01DX005 (ip), vehicle: Klucel (hydroxypropylcellulose) (HPC)) 103 % of control; (dose: 200.0 mg/kg/injection, schedule: Q04DX002 (ip), vehicle: Klucel (hydroxypropylcellulose) (HPC)) 95 % of control; (dose: 400.0 mg/kg/injection, schedule: Q04DX002 (ip), vehicle: Klucel (hydroxypropylcellulose) (HPC)) 103 % of control.
Regarding `COc1ccc(OC)c(/C=C/c2cnnc3ccccc23)c1`, the T/C reads like this: (dose: 18.75 mg/kg/injection, schedule: Q04DX003 (ip), vehicle: Klucel (hydroxypropylcellulose) (HPC)) 100 % of control; (dose: 37.5 mg/kg/injection, schedule: Q04DX003 (ip), vehicle: Klucel (hydroxypropylcellulose) (HPC)) 111 % of control; (dose: 75.0 mg/kg/injection, schedule: Q04DX003 (ip), vehicle: Klucel (hydroxypropylcellulose) (HPC)) 100 % of control; (dose: 150.0 mg/kg/injection, schedule: Q04DX003 (ip), vehicle: Klucel (hydroxypropylcellulose) (HPC)) 106 % of control; (dose: 300.0 mg/kg/injection, schedule: Q04DX003 (ip), vehicle: Klucel (hydroxypropylcellulose) (HPC)) 103 % of control.
On to `O=CNC(Cc1ccc(N(CCCl)CCCl)cc1)C(=O)O` (stereo not given), for which the T/C is, setting by setting: (dose: 6.25 mg/kg/injection, schedule: Q01DX009 (ip), vehicle: saline sonified) 159 % of control; (dose: 6.6 mg/kg/injection, schedule: Q04DX003 (ip), vehicle: saline) 170 % of control; (dose: 10.0 mg/kg/injection, schedule: Q04DX003 (ip), vehicle: saline) 160 % of control; (dose: 12.5 mg/kg/injection, schedule: Q01DX009 (ip), vehicle: saline sonified) 168 % of control; (dose: 15.0 mg/kg/injection, schedule: Q04DX003 (ip), vehicle: saline) 170 % of control; (dose: 25.0 mg/kg/injection, schedule: Q01DX009 (ip), vehicle: saline sonified) 213 % of control.
For `OCCCOc1ccc(OCCCO)cc1`, the T/C runs as follows: (dose: 60.0 mg/kg/injection, schedule: Q01DX005 (ip), vehicle: Klucel (hydroxypropylcellulose) (HPC)) 100 % of control; (dose: 120.0 mg/kg/injection, schedule: Q01DX005 (ip), vehicle: Klucel (hydroxypropylcellulose) (HPC)) 99 % of control; (dose: 240.0 mg/kg/injection, schedule: Q01DX005 (ip), vehicle: Klucel (hydroxypropylcellulose) (HPC)) 103 % of control.
Turning to `COC1=CC(=O)C(C#CCOCc2ccccc2)=CC1=O`, the T/C (dose: 7.5 mg/kg/injection, schedule: Q01DX005 (ip), vehicle: Klucel (hydroxypropylcellulose) (HPC)) is 100 % of control; the T/C (dose: 15.0 mg/kg/injection, schedule: Q01DX005 (ip), vehicle: Klucel (hydroxypropylcellulose) (HPC)) was 102 % of control; the T/C (dose: 30.0 mg/kg/injection, schedule: Q01DX005 (ip), vehicle: Klucel (hydroxypropylcellulose) (HPC)) is 105 % of control.
Turning to `C/C=C/c1cccc(OC)c1OC`, the T/C reads like this: (dose: 100.0 mg/kg/injection, schedule: Q01DX001 (ip), vehicle: saline with Tween-80) 108 % of control; (dose: 200.0 mg/kg/injection, schedule: Q01DX001 (ip), vehicle: saline with Tween-80) 120 % of control; (dose: 400.0 mg/kg/injection, schedule: Q01DX001 (ip), vehicle: saline with Tween-80) 110 % of control.
As for `O=C(NN(CCN(NC(=O)c1ccccc1)C(=O)c1ccccc1)C(=O)c1ccccc1)c1ccccc1`, the T/C was 99 % of control under setting [5], 92 % of control under setting [6] and 96 % of control under setting [7].
With `Cn1c(=O)oc2cc(N)c(Cl)cc21`, the T/C was 88 % of control under setting [1]; 94 % of control under setting [2]; 100 % of control and 87 % of control under setting [3].
In the case of `COC(=O)CC1(O)C=C(C)C(=O)c2ccccc21` (stereo not given), the T/C is 100 % of control (dose: 25.0 mg/kg/injection, schedule: Q01DX005 (ip), vehicle: saline with Tween-80); 101 % of control under setting [5]; 100 % of control under setting [6]; 100 % of control under setting [7]; 101 % of control (dose: 400.0 mg/kg/injection, schedule: Q01DX005 (ip), vehicle: saline with Tween-80).
With `O=CNc1c(Nc2ccccc2)nc(-c2ccccc2)[nH]c1=O`, the T/C (dose: 15.0 mg/kg/injection, schedule: Q01DX009 (ip), vehicle: saline with Tween-80) is 105 % of control; the T/C (dose: 30.0 mg/kg/injection, schedule: Q01DX009 (ip), vehicle: saline with Tween-80) was 91 % of control; the T/C (dose: 60.0 mg/kg/injection, schedule: Q01DX009 (ip), vehicle: saline with Tween-80) was 91 % of control.
With `N=c1nc(N)c2ncc(/C=C/c3ccccc3)n(O)c-2n1`, the T/C is 97 % of control (dose: 15.0 mg/kg/injection, schedule: Q01DX009 (ip), vehicle: saline); 101 % of control (dose: 30.0 mg/kg/injection, schedule: Q01DX009 (ip), vehicle: saline); 101 % of control (dose: 60.0 mg/kg/injection, schedule: Q01DX009 (ip), vehicle: saline).
